The target of the test is PDE10A (UniProt Q9Y233). Briefly: PDE10 enzyme inhibition, IMAP TR-FRET assay (Example A, MPDE10A7 Enzyme Activity and Inhibition). Format: biochemical. Particulars: approximate IC50 value, Table 10. In a few lines:
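Compounds were preincubated 60 min at room temperature with PDE10A enzyme or tissue homogenate, then fluorescein-labeled cAMP or cGMP was added for 90 min. After stopping with IMAP binding reagents, TR-FRET was read and IC50s were fitted with a four-parameter logistic equation.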
Background: In TR-FRET formats the signal depends on donor and acceptor labels being close together.

Counter-ions that a name gives are not always drawn. Where only a bound is given, the exact number is not on record here.

One may read the IC50 as the concentration needed to halve the response being measured. For the compound `CC1(C)C(=O)N([C@H]2C[C@H](Nc3ccc4ncccc4n3)C2)c2nccnc21` [Example 163, 5-(trans-3-((1,5-naphthyridin-2-yl)amino)cyclobutyl)-7,7-dimethyl-5H-pyrrolo[2,3-b]pyrazin-6(7 H)-one], the concentration for half-maximal inhibition (IC50) was 0.459 nM.

Take `CC1(C)C(=O)N([C@H]2C[C@H](Nc3ccc(-n4cccn4)cn3)C2)c2nccnc21` [Example 164, 5-(trans-3-((5-(1H-pyrazol-1-yl)pyridin-2-yl)amino)cyclobutyl)-7,7-dimethyl-5H-pyrrolo[2,3-b]pyrazin-6(7 H)-one triacetate]: the IC50 came out at 0.921 nM.

Regarding `c1cnc2c(c1)ccn2[C@H]1C[C@H](Nc2nc3ccccc3s2)C1` [Example 165, N-(trans-3-(1H-pyrrolo[2,3-b]pyridin-1-yl)cyclobutyl)benzo[d]thiazol-2-amine], it took 38.5 nM to reach half-maximal inhibition (IC50).

The compound `CC1(C)C(=O)N([C@H]2C[C@H](Nc3ncc4ccccc4n3)C2)c2ncccc21` [Example 166, 3,3-dimethyl-1-(trans-3-(quinazolin-2-ylamino)cyclobutyl)-1H-pyrrolo[2,3-b]pyridin-2(38)-one] displayed an IC50 of 1120 nM.

`CC1(C)C(=O)N([C@H]2C[C@H](Nc3ccc(OC(F)F)cn3)C2)c2nccnc21` [Example 167, 5-(trans-3-((5-(difluoromethoxy)pyridin-2-yl)amino)cyclobutyl)-7,7-dimethyl-5H-pyrrolo[2,3-b]pyrazin-6(7H)-one(trifluoroacetic acid salt)] had a half-inhibitory concentration (IC50) of 98.4 nM.

Turning to `CC1(C)C(=O)N([C@H]2C[C@H](Nc3nc4ccccc4o3)C2)c2ncccc21` [Example 168, 1-(trans-3-(benzo[d]oxazol-2-ylamino)cyclobutyl)-3,3-dimethyl-1H-pyrrolo[2,3-b]pyridin-2(3 H)-one], half-maximal inhibition (IC50) was put at 0.116 nM.

`CC1(C)C(=O)N([C@H]2C[C@H](Nc3nc4cc(F)c(F)cc4s3)C2)c2nccnc21` [Example 169, 5-(trans-3-((5,6-difluorobenzo[d]thiazole-2-yl)amino)cyclobutyl)7,7-dimethyl-5H-pyrrolo-[2,3-b]pyrazin-6(7 H)-one]: the IC50 amounted to 0.416 nM.

In turn, `CC1(C)C(=O)N([C@H]2C[C@H](Nc3nc4c(F)cc(F)cc4s3)C2)c2nccnc21` [Example 170, 5-(trans-3-((4,6-difluorobenzo[d]thiazole-2-yl)amino)cyclobutyl)-7,7-dimethyl-5H-pyrrolo-[2,3-b]pyrazin-6(714)-one] showed a half-maximal inhibitory concentration (IC50) of 2.71 nM.

In turn, `COc1ccc2nc(N[C@H]3C[C@H](N4C(=O)C(C)(C)c5nccnc54)C3)sc2c1` [Example 171, 5-(trans-3-((6-methoxybenzo[d]thiazole-2-yl)amino)cyclobutyl)-7,7-dimethyl-5H-pyrrolo[2,3-b]pyrazin-6(7 H)-one] gave a half-maximal inhibitory concentration (IC50) of 4.16 nM.

`Cn1c(=O)n([C@H]2C[C@H](Nc3nc4cccnc4s3)C2)c2ncccc21` [Example 172, 1-methyl-3-(trans-3-(thiazolo[-5,4-b]pyridin-2-ylamino)cyclobutyl)-1H-imidazo[4,5-b]pyridin-2(3 H)-one] yielded a half-maximal inhibitory concentration (IC50) of 2.15 nM.

For the compound `CC1(C)C(=O)N([C@H]2C[C@H](Nc3nc4cccnc4s3)C2)c2nccnc21` [Example 173, 7,7-dimethyl-5-(trans-3-(thiazolo[5,4-b]pyridin-2-ylamino)cyclobutyl)-5H-pyrrolo[2,3-b]pyrazin-6(7H)-one], the 50% inhibitory concentration (IC50) stood at 1.49 nM.

For `O=c1n(C2CC2)c2nccnc2n1[C@H]1C[C@H](Nc2ncc3ccc(F)cc3n2)C1` [Example 174], the concentration for half-maximal inhibition (IC50) worked out at 0.896 nM.

On to `CC1(C)C(=O)N([C@H]2C[C@H](Nc3ncc4ccc(F)cc4n3)C2)c2nccnc21` [Example 175, 5-(trans-3-((7-fluoroquinazolin-2-yl)amino)cyclobutyl)-7,7-dimethyl-5H-pyrrolo[2,3-b]lpyrazin-6(7 H)-one], for which the half-maximal inhibitory concentration (IC50) amounted to 18.4 nM.

As for `O=c1n(C2CC2)c2nccnc2n1[C@H]1C[C@H](Nc2nc3ccc(F)cc3o2)C1` [Example 176, 1-cyclopropyl-3-(trans-3-((6-fluorobenzo[d]oxazol-2-yl)amino)cyclobutyl)-1H-imidazo[4,5-b]pyrazin-2(3 H)-one], the IC50 amounted to 7.75 nM.

In turn, `CC1(C)C(=O)N([C@H]2C[C@H](Nc3nc4ccc(F)cc4o3)C2)c2nccnc21` [Example 177, 5-(trans-3-((6fluorobenzo[d]oxazol-2-yl)amino)cyclobutyl)-7,7-dimethyl-5H-pyrrolo[2,3-b]pyrazin-6(7 H)-one] came in with a half-maximal inhibitory concentration (IC50) of 2.82 nM.

`O=c1n(C2CC2)c2nccnc2n1[C@H]1C[C@H](Nc2nc3cccnc3s2)C1` [Example 178, 1-cyclopropyl-3-(trans-3-(thiazolo[5,4-b]pyridin-2-ylamino)cyclobutyl)-1H-imidazo[4,5-b]pyrazin-2(3 H)-one] yielded a half-maximal inhibitory concentration (IC50) of 2.22 nM.

As for `CC1(C)C(=O)N([C@H]2C[C@H](Nc3ncc4ccccc4n3)C2)c2nccnc21` [Example 179, 7,7-dimethyl-5-(trans-3-(quinazolin-2-ylamino)cyclobutyl)-5H-pyrrolo[2,3-b]pyrazin-6(7 H)-one], the half-maximal inhibitory concentration (IC50) turned out to be 2.01 nM.

Take `O=C1COc2cccnc2N1[C@H]1C[C@H](Nc2nc3ccccc3s2)C1` [Example 182, 4-(trans-3-(benzo[d]thiazol-2-ylamino)cyclobutyl)-2H-pyrido[3,2-b][1,4]oxazin-3(4H)-one]: the 50% inhibitory concentration (IC50) was more than 9750 nM.

The compound `O=c1n(C2CC2)c2cccnc2n1[C@H]1C[C@H](Nc2ncc3ccccc3n2)C1` [Example 184, 1-cyclopropyl-3-(trans-3-(quinazolin-2-ylamino)cyclobutyl)-1H-imidazo[4,5-b]pyridin-2(3H)-one] gave an IC50 of 34.7 nM.

With `O=c1n(C2CC2)c2cccnc2n1[C@H]1C[C@H](Nc2nc3cc(F)ccc3s2)C1` [Example 185, 1-cyclopropyl-3-(trans-3-((5-fluorobenzo[d]thiazol-2-yl)amino)cyclobutyl)-1H-imidazo[4,5-b]pyridin-2(3H)-one], the IC50 is 0.839 nM.

Compound `O=c1n(C2CC2)c2cccnc2n1[C@H]1C[C@H](Nc2nc3ccc(F)cc3s2)C1` [Example 186, 1-cyclopropyl-3-(trans-3-((6-fluorobenzo[d]thiazol-2-yl)amino)cyclobutyl)-1H-imidazo[4,5-b]pyridin-2(3H)-one] displayed an IC50 of 0.669 nM.

`CC1(C)C(=O)N(C2CC(Nc3ccc4ccccc4n3)C2)c2nccnc21` (stereo not shown) [Example 187, 7,7-dimethyl-5-(3-(quinolin-2-ylamino)cyclobutyl)-5H-pyrrolo[2,3-b]pyrazin-6(7 H)-one] returned an IC50 of 1.06 nM.

In turn, `CC1(C)C(=O)N(C2CCN(c3ncc4ccccc4n3)CC2)c2ncccc21` [Example 188, 3,3-dimethyl-1-(1-(quinazolin-2-yl)piperidin-4-yl)-1H-pyrrolo[2,3-b]pyridin-2(3 H)-one] gave an IC50 of 0.127 nM.

With `CC1(C)C(=O)N(C2CCN(c3nc4ccccc4s3)CC2)c2ncccc21` [Example 189, 1-(1-(benzo[d]thiazol-2-yl)piperidin-4-yl)-3,3-dimethyl-1H-pyrrolo[2,3-b]pyridin-2(3 H)-one], the IC50 was 1.99 nM.

With `CC1(C)C(=O)N(C2CCN(c3ccc4ccccc4n3)CC2)c2ncccc21` [Example 190, 3,3-dimethyl-1-(1-(quinolin-2-yl)piperidin-4-yl)-1H-pyrrolo[2,3-b]pyridin-2(3 H)-one], the IC50 came out at 0.695 nM.

The record behind these values is patent publication US9174992B2, “Heterobicyclic compounds” (Amgen Inc., priority 2012, dated 2015).
